Like-named read-outs stand apart in the source and are kept apart here. One block for each compound: values may come before it.
Tests used:
[1] = Dye damage in tergotometer wash at pH 9 (Example VII), nylon 6,6; settings: nylon 6,6 dyed with CI disperse 14; pH 9, 40°C, 30 minutes, peroxyacid 9.2x10^-4 mole/l
[2] = Dye damage in tergotometer wash with detergent base at pH 6 to 10 (Example III); settings: peroxyacid 9.2x10^-4 mole/l, detergent base 4 g/l, 40°C, 30 minutes
[3] = pKa determination by sodium hydroxide titration of peroxyacid solution
[4] = Dye damage in tergotometer wash at pH 9 (Example VII), triacetate; settings: triacetate dyed with CI disperse 14; pH 9, 40°C, 30 minutes, peroxyacid 9.2x10^-4 mole/l
[5] = Dye damage in tergotometer wash at pH 9 (Example VII), diacetate; settings: diacetate dyed with CI disperse 14; pH 9, 40°C, 30 minutes, peroxyacid 9.2x10^-4 mole/l
[6] = peroxyacid solution 0.000525 moles/l plus EDTA, 22-24°C, 30 minutes
[7] = Stain bleaching, visual assessment of stained cloths after tergotometer wash (Example V); settings: for Ranking: score 1 smallest, 4 greatest cleaning benefit, peroxyacid 9.2x10^-4 mol l^-1, 40°C, 30 minutes
[8] = Tea stain bleaching, difference in reflectance at 460 nm before and after washing (Example VI); settings: 40°C, 30 minutes
Method: The stain bleaching performance was measured by determining the difference ([…]) in %reflectance of cloths at 460 nm before and after washing. […] This was carried out in a tergotometer at 40°C, washing for 30 minutes. Cloths were washed in 450 ml 18°FH water with 1.8 g NSPA base powder and peroxyacid included at 9.2x10^-4 mol l^-1. Two series of experiments were carried out; one at pH 6 where the peracid is largely in its undissociated form and one above the peracid pKa, at pH 9. A stained piece of fabric measuring 8x8 cm was cut into four such that each quarter would be washed under one of each of the four experimental conditions. The method as in example V was used in determining the tea stain bleaching effect of sterically hindered hydrophobic peroxyacids, the differences being that 3 replicates were used, the reflectance was measured before and after washing, tests were done over a pH range of from 6 to 10 and 4 g/l NSPA base powder was used.

- pKa [3]: 8.1
Compound: CCCCCCCCC(=O)OO [n-pernonanoic, n-pernonanoic acid]
- % dye damage [1]: 52%
- % DYE DAMAGE ([2]; pH 6): 70.4%
- % DYE DAMAGE ([2]; pH 7): 67.9%
- % DYE DAMAGE ([2]; pH 8): 63.7%
- % DYE DAMAGE ([2]; pH 9): 37.2%
- % DYE DAMAGE ([2]; pH 10): 15.0%
- % dye damage [4]: 85%
- % dye damage [5]: 82%

- pKa (physchem): 7.98
Compound: CC(C)(C)c1ccc(C(=O)OO)cc1 [p-bu^t perbenzoic, p-t-butylperbenzoic acid]
- % dye damage [6]: 19.6%

- pKa [3]: 8
Compound: CCCCc1ccc(C(=O)OO)cc1 [p-bu^n perbenzoic, reference compound]
- % dye damage [6]: 39.6%

The next lines start with the compound.

Compound: O=C(OO)C1CC2CCC1C2 (stereo not drawn) [Norbornane-endo-2-Percarboxylic]
- % dye damage [6]: 7.0%
- pKa [3]: 8.15

Compound: O=C(OO)C1CC2CCC1C2 (centres unmarked) [NBC, Norbornane 2-peroxyacid]
- Ranking ([7]; Washes at pH 9): 2
- Ranking ([7]; Washes pH 6): 2

Compound: O=C(OO)C12CC3CC(CC(C3)C1)C2 [Peradamantoic, Peradamantoic acid]
- TEA STAIN BLEACHING ΔR460NM ([8]; pH 6, 4 g/l NSPA base powder): 13.2
- TEA STAIN BLEACHING ΔR460NM ([8]; pH 7, 4 g/l NSPA base powder): 16.9
- TEA STAIN BLEACHING ΔR460NM ([8]; pH 8, 4 g/l NSPA base powder): 17.3
- TEA STAIN BLEACHING ΔR460NM ([8]; pH 9, 4 g/l NSPA base powder): 13.1
- TEA STAIN BLEACHING ΔR460NM ([8]; pH 10, 4 g/l NSPA base powder): 3.6
- % dye damage [6]: 11.2%
- Ranking ([7]; Washes at pH 9): 4
- Ranking ([7]; Washes pH 6): 4
- removal of the stain ([7]; black biro stain, both at pH 6 and 9): almost complete removal of the stain
- pKa [3]: 7.95

Compound: CC(CC(=O)OO)CC(C)(C)C (centres unmarked) [iso-pernonanoic, peroxy-3,5,5-trimethylhexanoic acid]
- % dye damage [1]: 11%
- pKa [3]: 8.1
- % dye damage [4]: 23%
- % dye damage [5]: 25%

Compound: CC1(C(=O)OO)CC2CCC1C2 (stereo not drawn) [2 methylnorbornane-endo-2-percaboxylic]
- % dye damage [6]: 5.6%
- pKa [3]: 8.2

Compound: CC1C2CCC(C2)C1C(=O)OO (stereo not drawn) [Trans-3-Methyl norbornane-endo-2-percaboxylic]
- % dye damage [6]: 8.2%
- pKa [3]: 8.15

— patent EP0588622B1, “Bleach composition” (UNILEVER PLC, priority 1992, dated 1994)
